From patent US20220387403A1, “COMPOUNDS, COMPOSITIONS AND METHODS FOR TREATING NASH, NAFLD, AND OBESITY” (CVI Pharmaceuticals Limited, priority 2019, published 2022)
“Also recorded” adds a separate entry of the source.

Tests used:
LDLR mRNA [1] = test: LDLR mRNA expression in HepG2 cells, semi-quantitative RT-PCR; format: cell-based, human; settings: 8 hours, FIG. 3
Description: HepG2 cells obtained from American Tissue Culture Collection (Manassas, Va., USA) were seeded in 6-well culture plates at a density of 0.8×10^6 cells/well cultured in EMEM containing 0.5% FBS and were treated with each purified compound at indicated doses for 8 hours. Total RNA was isolated, and 2 μg per sample was reverse transcribed with random primers using M-MLV (Promega) at 37° C. for 1 hour. PCR was carried out at 94° C. for 30 sec, 60° C. for 30 sec, and 72° C. for 30 sec with initial activation of the enzyme at 94° C. for 1 minute. Thirty cycles were performed for LDLR and GAPDH. PCR was performed using primers HLDLR-up and HLDLR-lo for LDLR and primers HGAPDH-up and HGAPDH-lo for GAPDH. The PCR products were separated on a 1% agarose gel and the band intensity was quantitated. LDLR mRNA levels were corrected by measuring GAPDH mRNA levels.
Specific stereochemical requirements of +/−THP in the upregulation of LDLR mRNA expression were determined by a similar experiment. HepG2 cells were treated with the pure 14R-(+)-THP or the pure 14S-(−)-THP at the indicated concentrations for 24 hours. The levels of LDLR mRNA and GAPDH mRNA in untreated and the compound-treated HepG2 cells were assessed by semi-quantitative RT-PCR.

PCSK9 = test: Western blot of PCSK9 protein in HepG2 cells; format: cell-based, human
Description: (§1) Cells were harvested after 1, 2, and 3 days treatment and western blot analysis was conducted using antibodies directed to LDLR and PCSK9. Chicken anti-LDLR was purchased from Abcam, the mouse anti-PCSK9 was purchased from Cayman Chemicals, and anti-pACC was purchased from Cell Signaling.
(§2) To determine whether the stimulatory effects of statins on LDLR protein expression could be enhanced by some new compounds invented herein, HepG2 cells were untreated or treated with a low dose of rosuvastatin (RSV) at 0.3 and 1 uM concentration in the absence or the presence of Compound 127(+), or treated with low concentrations of Compound 127(+) alone for 2 days. Western blot analysis was conducted to examine LDLR and PCSK9 protein levels. Compound 127(+) is the single enantiomer of compound 127 with a positive optical rotation. […] Furthermore, the inducing effects of RSV on PCSK9 protein levels were antagonized by compound 127(+).
(§3) Chicken anti-LDLR was purchased from Abcam and the mouse anti-PCSK9 was purchased from Cayman Chemicals. HepG2 cells cultured in 60-mm dishes were incubated overnight in medium containing 0.5% fetal bovine serum prior to the addition of compounds at 20 uM concentration for 1-3 days. Total cell lysate was isolated and 50 μg of protein was separated on SDS-PAGE and transferred to nitrocellulose membrane for immunoblotting with anti-LDLR, anti-PCSK9, and anti-p-ACC.

LDLR = test: Western blot of LDLR protein in HepG2 cells; format: cell-based, human
Description: as §1, §2, §3

ACC = test: Western blot of phosphorylated ACC in HepG2 cells; format: cell-based, human; settings: 20 μM, 1, 2 and 3 days
Description: as §1, §3

PCSK9 mRNA = PCSK9 mRNA expression in HepG2 cells, quantitative real-time RT-PCR; format: cell-based, human; settings: 24 hours, mean ± s.d.
Description: The time-dependent effects of compounds of Formula I, II, III, and IV on the upregulation of LDLR mRNA and the inhibition of PCSK9 mRNA expression were examined (Horton J D, Cohen J C, Hobbs H H. “Molecular biology of PCSK9: its role in LDL metabolism” TRENDS in Biochemical Sciences 2007; 32:71-77). HepG2 cells were treated with new compounds individually at 20 uM dose for 1 day, 2 day, and 3 days. Total RNA was isolated and 2 μg was used to generate cDNA in a reaction containing random primers and M-MLV at 37° C. for 1 hour in a volume of 25 μl. Real-time PCR was performed on the cDNA using MCEP REALPLEX 2 SYSTEM (Eppendorf) and Universal MasterMix (Applied Biosystems). Human LDLR, PCSK9, and GAPDH Pre-Developed TaqMan Assay Reagents (Applied Biosystems) were used to assess the levels of mRNA expressions in HepG2. The levels of LDLR mRNA or PCSK9 mRNA were normalized to that of GAPDH. Each RNA samples was assayed in triplicate. The abundance of LDLR mRNA or PCSK9 mRNA in untreated cells was defined as 1, and the amounts of LDLR mRNA or PCSK9 from compound-treated cells were plotted relative to that value (FIG. 10). The data shown are mean±s.d.
Total RNA was harvested for quantitative real-time RT-PCR analysis using method described in Examples 16B. The fold activity was derived by dividing the amount of normalized LDLR or PCSK9 mRNA in compound-treated cells over the amount of LDLR or PCSK9 mRNA in untreated control cells.
(§4) The effects of 23 compounds on the mRNA expressions of LDLR and PCSK9 were examined using quantitative real-time RT-PCR assays. HepG2 cells were treated with various compounds at 10 and 40 uM concentrations for 24 hours. Total RNA was isolated and 2 μg was used to generate cDNA in a reaction containing random primers and M-MLV at 37° C. for 1 h in a volume of 25 μl. Real-time PCR was performed on the cDNA using MCEP REALPLEX 2 SYSTEM (Eppendorf) and Universal MasterMix (Applied Biosystems). Human LDLR, PCSK9, and GAPDH Pre-Developed TaqMan Assay Reagents (Applied Biosystems) were used to assess the levels of mRNA expressions in HepG2. The levels of LDLR and PCSK9 mRNA were normalized to that of GAPDH. Each RNA samples was assayed in duplicate. The fold activity was calculated by dividing mRNA abundance in compound treated cells with that of control.

LDLR mRNA [2] = test: LDLR mRNA expression in HepG2 cells, quantitative real-time RT-PCR; format: cell-based, human; settings: 24 hours, mean ± s.d.
Description: Activities of some compounds of Formulas I, II, III, and IV on LDLR mRNA expression were determined. HepG2 cells were treated with new compounds individually at a dose less than or equal to 10 μM for 24 hours. Total RNA was harvested for quantitative real-time RT-PCR analysis using the method described in Example 16B. […] In these experiments, berberine chloride was included for comparison. […]
Total RNA was harvested for quantitative real-time RT-PCR analysis using method described in Examples 16B.
as §4

NAFLD hamster model = test: High fat and high cholesterol diet induced NAFLD hamster model; format: in vivo; settings: 4 weeks
Description: In a high fat and high cholesterol diet (HFHCD) induced non-alcoholic fat liver disease (NAFLD) hamster model, hamsters were fed a HFHCD for two weeks then treated for 4 weeks with C128 at 10 mg/kg, 20 mg/kg and 40 mg/kg, along with fenofibrate at 50 mg/kg as a positive control. Serum lipids and liver enzymes were measured using standard techniques. Liver tissue histopathology with Oil-red O staining and H&E staining were also performed.
In a high fat and high cholesterol diet (HFHCD) induced NAFLD hamster model, hamsters were fed a HFHCD for two weeks then treated for 4 weeks with C127 at 80 mg/kg or with fenofibrate 50 mg/kg.

obese Cynomolgus monkeys = test: Obese Cynomolgus monkeys fed a high fat diet (DEXA scan, serum parameters); format: in vivo; settings: 40 mg/kg/day PO three weeks, then 80 mg/kg/day weeks 4-6
Source text: Twelve obese Cynomolgus monkeys were fed a high fat diet containing 0.5% cholesterol for 6 weeks before the treatment phase. Before the treatment with compound 127 (C127) or vehicle, all animals received a assessment of whole body and fat composition using Dual Energy X-Ray Absorptiometry (DEXA) whole body scan to measure body fat content and bone mineral density/content (reference: Black, A., Tilmont, E. M., Baer, D. J., Rumpler W. V., et. Al. Accuracy and precision of dual-energy X-ray absorptiometry for body composition measurements in rhesus monkeys. Journal of Medical Primatology, 30:94-99, 2001. Six monkeys received vehicle by PO and six monkeys received C127 at 40 mg/kg/day by PO for three weeks; from week 4-6, C127 dose was increased to 80 mg/kg/day. Dosing was ended after 6-weeks treatment, followed by DEXA scan on all animals.

NASH hamster model = test: Free-choice diet-induced NASH hamster model; format: in vivo
Description: In a free-choice diet-induced NASH hamster model, hamsters were fed a free choice diet (free choice between a chow diet with normal tap water or a high fat/cholesterol diet (Safe Diets) with 10% fructose enriched tap water) for up to 20 weeks (15 weeks diet and 5 weeks treatment). After 15 weeks of diet, hamsters were randomized into 3 homogenous groups (n=10/group) and were treated with vehicle, compound 128 (C128) at 100 mg/kg, or PPAR dual agonist elafibranor 15 mg/kg orally QD for 5 weeks. […] The study results are illustrated by FIGS. 17 to 19.

[3] = with rosuvastatin 0.3 and 1 uM, 2 days
[4] = 100 mg/kg orally QD for 5 weeks
[5] = C128 100 mg/kg, elafibranor 15 mg/kg, orally QD for 5 weeks

SMILES: COc1cc2c(cc1OC)[C@H]1[C@@H](C)c3ccc(OC)c(OC)c3CN1CC2 [14R,13S-(+)-CRDL, 14R,13S-(+)-corydaline]
- effects on LDLR mRNA expression (in words) (LDLR mRNA [1]): potent and dose-dependent effects

SMILES: COc1cc2c(cc1O)CCN1Cc3c(ccc(OC)c3OC)CC21 (stereo not drawn) [14R-(+)-CRPM, 14R-(+)-corypalmine]
- effects on LDLR mRNA expression (in words) (LDLR mRNA [1]): potent and dose-dependent effects

SMILES: COc1cc2c(cc1OC)[C@H]1Cc3ccc(OC)c(OC)c3CN1CC2 [14R-(+)-THP, 14R-(+)-tetrahydropalmatine]
- effects on LDLR mRNA expression (in words) (LDLR mRNA [1]): potent and dose-dependent effects

SMILES: COc1cc2c(cc1OC)C1Cc3ccc(OC)c(OS(=O)(=O)c4cccc(F)c4)c3CN1CC2 (stereo not drawn) [127(+), 2,3,10-Trimethoxy-5,6,7,8,13,13a-hexahydroisoquinolino[2,1-b]isoquinolin-9-yl 3-fluorobenzenesulfonate]
- expression of PCSK9 protein (in words) (PCSK9; 20 μM, 1, 2 and 3 days): strongly inhibited
- inducing effects of RSV on PCSK9 protein levels, combination (in words) (PCSK9; [3]): antagonized
- LDLR protein levels (in words) (LDLR; 20 μM, 1, 2 and 3 days): effectively increased
- stimulatory effects of statins on LDLR protein expression, combination (in words) (LDLR; [3]): further improved
- ACC phosphorylation (in words) (ACC): induced

SMILES: COc1cc2c(cc1OC)C1Cc3ccc(OC)c(OS(=O)(=O)c4cccc(F)c4)c3CN1CC2 (centres unmarked) [Compound 127, 2,3,10-trimethoxy-5,6,7,8,13,13a-hexahydroisoquinolino[2,1-b]isoquinolin-9-yl 3-fluorobenzenesulfonate]
- Activity on PCSK9 mRNA reduction at 10 uM (fold of control) (PCSK9 mRNA): 0.197 ± 0.014 fold of control
- Activity on PCSK9 mRNA reduction at 40 uM (fold of control) (PCSK9 mRNA): 0.192 ± 0.016 fold of control
- Activity on LDLR mRNA at 10 uM (fold of control) (LDLR mRNA [2]): 1.80 ± 0.13 fold of control
- Activity on LDLR mRNA at 40 uM (fold of control) (LDLR mRNA [2]): 2.38 ± 0.38 fold of control
- hepatocyte lipid droplet vacuoles, cell and neutrophil infiltration (H&E) (NAFLD hamster model; C127 80 mg/kg): reduced
- hypolipidemic effect (NAFLD hamster model; C127 80 mg/kg): significant hypolipidemic effect
- lipid deposition in the liver (NAFLD hamster model; C127 80 mg/kg): effectively reduced
- body weight, BMI and body fat (DEXA) (obese Cynomolgus monkeys): reduced
- bone mineral content (DEXA) (obese Cynomolgus monkeys): improved
- liver enzyme ALT (obese Cynomolgus monkeys): significant reduction
- serum LDL-C, TC (obese Cynomolgus monkeys): trend in reducing

SMILES: COc1ccc2c(c1)CCN1Cc3c(ccc(OC)c3OS(=O)(=O)c3cccc(F)c3)CC21 (centres unmarked) [Compound 128, 3,10-dimethoxy-5,6,7,8,13,13a-hexahydroisoquinolino[2,1-b]isoquinolin-9-yl 3-fluorobenzenesulfonate]
- inflammation score (NASH hamster model; [4]): trend towards lower
- steatosis score (NASH hamster model; [4]): trend towards lower
- NAS score (NASH hamster model; [5]): significant reduction
- fibrosis (NASH hamster model; [5]): significantly lowered; also recorded: not detected
- hepatocyte ballooning (NASH hamster model; [5]): significantly lowered
- Activity on PCSK9 mRNA reduction at 40 uM (fold of control) (PCSK9 mRNA): 0.86 ± 0.029 fold of control
- Activity on LDLR mRNA at 10 uM (fold of control) (LDLR mRNA [2]): 7.52 ± 0.26 fold of control
- Activity on LDLR mRNA at 40 uM (fold of control) (LDLR mRNA [2]): 13.36 ± 0.46 fold of control
- lipid droplets in the hepatocytes and cellular inflammation (H&E) (NAFLD hamster model; 20 mg/kg and 40 mg/kg groups): alleviated to varying degrees
- hepatocyte lipid droplet, hepatocyte ballooning and cellular inflammation (H&E) (NAFLD hamster model; 40 mg/kg group): significantly reduced
- circulating cholesterol and triglycerides (serum TC, LDL-C, TG) (NAFLD hamster model; C128 10, 20 and 40 mg/kg): significantly reduced
- diet induced elevations of liver enzymes (ALT, AST, ALP) (NAFLD hamster model; C128 10, 20 and 40 mg/kg): significantly reduced
- fat accumulation in liver tissues (NAFLD hamster model; C128 10, 20 and 40 mg/kg): significantly reduced

SMILES: COc1cc2c(cc1OCCO)C1Cc3ccc(OC)c(OS(=O)(=O)c4ccccc4)c3CN1CC2 (centres unmarked) [Compound 143, 2-(2-hydroxyethoxy)-3,10-dimethoxy-5,6,7,8,13,13a-hexahydroisoquinolino[2,1-b]isoquinolin-9-yl benzenesulfonate]
- Activity on PCSK9 mRNA reduction at 10 uM (fold of control) (PCSK9 mRNA): 1.09 ± 0.09 fold of control
- Activity on LDLR mRNA at 10 uM (fold of control) (LDLR mRNA [2]): 1.87 ± 0.03 fold of control
- Activity on LDLR mRNA at 40 uM (fold of control) (LDLR mRNA [2]): 14.97 ± 1.68 fold of control
